The results in this text go back to ChEMBL document CHEMBL1121833, “Structure--sweetness relationship of L-aspartyl dipeptide analogues. A receptor site topology” (J Med Chem, 1981).

A short description of the first assay: Sweet potency as logarithm of sweet potency (log SP) relative to sucrose; Sweet. The format is functional.
In the case of `CCOC(=O)[C@H](NC(=O)[C@H](N)CC(=O)O)C(=O)OC(C)(C)C`, the “Log SP” value is recorded as “Sweet”.

Consider `N[C@H](CC(=O)O)C(=O)NCCc1ccc(O)cc1`, for which the “Log SP” value is “Sweet”.

Turning to `N[C@H](CC(=O)O)C(=O)N[C@@H](CO)Cc1ccccc1`, the “Log SP” value is recorded as “Sweet”.

For the compound `CCCCCCCNC(=O)[C@H](N)CC(=O)O`, the “Log SP” value is “Sweet”.

For `N[C@H](CC(=O)O)C(=O)NCCOc1ccccc1`, the “Log SP” value is listed as “Sweet”.

The nature of the next assay: Sweet potency as logarithm of sweet potency (log SP) relative to sucrose; Bitter. The format is functional.
In the case of `C[C@@H](Cc1cc2ccccc2[nH]1)NC(=O)[C@H](N)CC(=O)O`, the “Log SP” value is “Bitter”.

Turning to `C[C@@H](Cc1ccccc1)N(C)C(=O)[C@H](N)CC(=O)O`, the “Log SP” value is given as “Bitter”.

Regarding `C[C@H](CC1CCCCC1)N(C)C(=O)[C@H](N)CC(=O)O`, the “Log SP” value is “Bitter”.

In the case of `COC(=O)[C@@H](CCCCN)NC(=O)[C@H](N)CC(=O)O`, the “Log SP” value was “Bitter”.

Regarding `CC(C)C[C@H](C)NC(=O)[C@H](N)CC(=O)O`, the “Log SP” value is listed as “Bitter”.

`C[C@H](Cc1ccccc1)N(C)C(=O)[C@H](N)CC(=O)O`: the “Log SP” value was “Bitter”.

For `C[C@@H](Cc1ccc2c(c1)OCO2)NC(=O)[C@H](N)CC(=O)O`, the “Log SP” value was “Bitter”.

In the case of `CCC[C@H](CC)NC(=O)[C@H](N)CC(=O)O`, the “Log SP” value is “Bitter”.

Turning to `CC(CNC(=O)[C@H](N)CC(=O)O)c1ccccc1` (stereo not given in full), the “Log SP” value was “Bitter”.

Regarding `C[C@@H](CC1CCCCC1)N(C)C(=O)[C@H](N)CC(=O)O`, the “Log SP” value was “Bitter”.

As to `C[C@@H](Cc1ccc(NS(C)(=O)=O)cc1)NC(=O)[C@H](N)CC(=O)O`, the “Log SP” value is recorded as “Bitter”.

The nature of the next assay: Sweet potency as logarithm of sweet potency (log SP) relative to sucrose. The format is functional.
Take `CCOC(=O)[C@H](NC(=O)[C@H](N)CC(=O)O)C(=O)OC(C)(C)C`: the Log SP came to 2.32.

A further assay can be described thus: Sweet potency as logarithm of sweet potency (log SP) relative to sucrose; Tasteless. It counts as functional.
Take `CC(C)CCCNC(=O)[C@H](N)CC(=O)O`: the “Log SP” value is listed as “Tasteless”.

As to `N[C@H](CC(=O)O)C(=O)NCCc1ccccc1`, the “Log SP” value is “Tasteless”.

With `CCC[C@H](C)NC(=O)[C@H](N)CC(=O)O`, the “Log SP” value is reported as “Tasteless”.
